# Reference: doi:10.1101/2025.01.28.635346v1 (bioRxiv, 2025)
# Bridge positions count the residues as written; N and C are the ends. Peptide text beside a SMILES is read from it.
# How the values were obtained:
# CHRM1 [1] = target: T1, CHRM1 (Homo sapiens, UniProt P11229); assay: Safetyscan47 GPCR Calcium Flux, Antagonist; format: cell-based
# T1 sequence (P11229 1-460): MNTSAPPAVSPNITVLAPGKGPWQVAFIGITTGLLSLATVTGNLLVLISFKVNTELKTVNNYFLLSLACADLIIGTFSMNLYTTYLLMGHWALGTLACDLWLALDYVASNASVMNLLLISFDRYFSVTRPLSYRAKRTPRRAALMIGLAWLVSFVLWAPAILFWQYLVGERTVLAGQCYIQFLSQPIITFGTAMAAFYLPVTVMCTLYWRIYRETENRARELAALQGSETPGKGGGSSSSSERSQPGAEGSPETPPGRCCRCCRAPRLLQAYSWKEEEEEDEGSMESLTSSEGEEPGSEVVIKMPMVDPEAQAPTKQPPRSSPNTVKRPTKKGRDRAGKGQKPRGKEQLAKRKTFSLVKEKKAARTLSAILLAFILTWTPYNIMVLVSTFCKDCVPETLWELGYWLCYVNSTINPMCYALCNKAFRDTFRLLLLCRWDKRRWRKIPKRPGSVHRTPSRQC
# [2] = Plasma protein binding, rapid equilibrium dialysis, mouse plasma; format: in vitro ADME
# HTR1B = HTR1B (Homo sapiens, UniProt P28222); assay: Safetyscan47 GPCR cAMP, Agonist; format: cell-based
# HTR1B, sequence (P28222 whole entry): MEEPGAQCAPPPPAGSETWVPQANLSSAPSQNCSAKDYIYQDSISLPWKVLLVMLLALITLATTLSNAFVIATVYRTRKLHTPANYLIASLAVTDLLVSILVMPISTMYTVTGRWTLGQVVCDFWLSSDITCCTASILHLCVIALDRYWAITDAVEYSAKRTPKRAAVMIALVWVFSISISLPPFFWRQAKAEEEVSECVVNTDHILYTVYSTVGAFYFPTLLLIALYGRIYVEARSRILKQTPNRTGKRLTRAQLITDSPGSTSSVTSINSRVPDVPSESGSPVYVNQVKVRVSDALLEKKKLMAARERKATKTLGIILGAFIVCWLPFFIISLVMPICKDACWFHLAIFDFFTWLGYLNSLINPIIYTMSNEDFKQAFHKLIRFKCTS
# OPRD1 [3] = target: T2, OPRD1 (Homo sapiens, UniProt P41143); assay: Safetyscan47 GPCR cAMP, Antagonist; format: cell-based
# T2 sequence (P41143 whole entry): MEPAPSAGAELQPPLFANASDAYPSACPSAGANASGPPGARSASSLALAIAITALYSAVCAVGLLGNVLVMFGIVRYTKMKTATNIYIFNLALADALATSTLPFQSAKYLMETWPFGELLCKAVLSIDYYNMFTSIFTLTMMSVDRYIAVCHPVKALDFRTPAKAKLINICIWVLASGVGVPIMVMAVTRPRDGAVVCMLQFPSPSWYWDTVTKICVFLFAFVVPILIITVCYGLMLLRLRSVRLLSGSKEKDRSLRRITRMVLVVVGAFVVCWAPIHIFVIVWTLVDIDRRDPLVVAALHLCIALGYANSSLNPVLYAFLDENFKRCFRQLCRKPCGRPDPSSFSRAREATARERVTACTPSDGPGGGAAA
# INSR = INSR (Homo sapiens, UniProt P06213); assay: Safetyscan47 Kinases Binding, Inhibitor
# INSR, sequence (P06213 28-1382): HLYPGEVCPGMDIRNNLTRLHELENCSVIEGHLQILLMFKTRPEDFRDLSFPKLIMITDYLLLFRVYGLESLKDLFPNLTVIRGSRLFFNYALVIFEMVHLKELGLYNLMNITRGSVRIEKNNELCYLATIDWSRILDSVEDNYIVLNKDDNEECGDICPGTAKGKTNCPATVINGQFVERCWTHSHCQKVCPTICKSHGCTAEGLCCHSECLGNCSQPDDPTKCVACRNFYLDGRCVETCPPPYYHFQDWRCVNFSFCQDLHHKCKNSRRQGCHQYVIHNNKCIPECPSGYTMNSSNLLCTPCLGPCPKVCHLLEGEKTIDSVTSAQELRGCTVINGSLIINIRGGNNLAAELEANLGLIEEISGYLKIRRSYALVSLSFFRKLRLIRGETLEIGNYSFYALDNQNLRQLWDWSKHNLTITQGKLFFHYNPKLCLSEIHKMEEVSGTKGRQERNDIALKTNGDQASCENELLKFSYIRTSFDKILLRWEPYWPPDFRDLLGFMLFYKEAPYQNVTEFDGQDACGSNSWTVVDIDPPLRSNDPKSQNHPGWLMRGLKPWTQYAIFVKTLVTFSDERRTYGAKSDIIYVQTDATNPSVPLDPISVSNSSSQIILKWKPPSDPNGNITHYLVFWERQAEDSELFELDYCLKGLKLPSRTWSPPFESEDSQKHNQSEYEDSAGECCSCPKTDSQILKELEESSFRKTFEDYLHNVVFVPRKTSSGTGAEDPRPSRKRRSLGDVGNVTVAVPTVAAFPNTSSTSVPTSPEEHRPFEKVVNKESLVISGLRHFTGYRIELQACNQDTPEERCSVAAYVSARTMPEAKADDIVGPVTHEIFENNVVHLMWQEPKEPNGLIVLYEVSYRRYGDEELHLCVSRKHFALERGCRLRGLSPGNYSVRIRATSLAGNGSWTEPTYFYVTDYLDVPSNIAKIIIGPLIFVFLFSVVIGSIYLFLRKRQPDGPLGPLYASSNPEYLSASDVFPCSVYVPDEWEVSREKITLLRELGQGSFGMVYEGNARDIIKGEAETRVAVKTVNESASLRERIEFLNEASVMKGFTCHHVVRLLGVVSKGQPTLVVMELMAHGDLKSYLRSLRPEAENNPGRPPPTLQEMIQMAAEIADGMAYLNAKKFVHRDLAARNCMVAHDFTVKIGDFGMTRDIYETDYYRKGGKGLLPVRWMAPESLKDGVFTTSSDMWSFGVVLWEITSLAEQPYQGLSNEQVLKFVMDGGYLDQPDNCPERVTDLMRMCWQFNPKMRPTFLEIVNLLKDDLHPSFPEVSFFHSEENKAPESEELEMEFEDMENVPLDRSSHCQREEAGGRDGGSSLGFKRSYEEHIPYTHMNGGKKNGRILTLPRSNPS
# integrin αvβ5 = integrin αvβ5 (Homo sapiens, UniProt P06756+P18084); assay: ELISA competition assay, integrin αvβ5; format: binding
# integrin αvβ5, sequence (P06756 31-992 limits assumed): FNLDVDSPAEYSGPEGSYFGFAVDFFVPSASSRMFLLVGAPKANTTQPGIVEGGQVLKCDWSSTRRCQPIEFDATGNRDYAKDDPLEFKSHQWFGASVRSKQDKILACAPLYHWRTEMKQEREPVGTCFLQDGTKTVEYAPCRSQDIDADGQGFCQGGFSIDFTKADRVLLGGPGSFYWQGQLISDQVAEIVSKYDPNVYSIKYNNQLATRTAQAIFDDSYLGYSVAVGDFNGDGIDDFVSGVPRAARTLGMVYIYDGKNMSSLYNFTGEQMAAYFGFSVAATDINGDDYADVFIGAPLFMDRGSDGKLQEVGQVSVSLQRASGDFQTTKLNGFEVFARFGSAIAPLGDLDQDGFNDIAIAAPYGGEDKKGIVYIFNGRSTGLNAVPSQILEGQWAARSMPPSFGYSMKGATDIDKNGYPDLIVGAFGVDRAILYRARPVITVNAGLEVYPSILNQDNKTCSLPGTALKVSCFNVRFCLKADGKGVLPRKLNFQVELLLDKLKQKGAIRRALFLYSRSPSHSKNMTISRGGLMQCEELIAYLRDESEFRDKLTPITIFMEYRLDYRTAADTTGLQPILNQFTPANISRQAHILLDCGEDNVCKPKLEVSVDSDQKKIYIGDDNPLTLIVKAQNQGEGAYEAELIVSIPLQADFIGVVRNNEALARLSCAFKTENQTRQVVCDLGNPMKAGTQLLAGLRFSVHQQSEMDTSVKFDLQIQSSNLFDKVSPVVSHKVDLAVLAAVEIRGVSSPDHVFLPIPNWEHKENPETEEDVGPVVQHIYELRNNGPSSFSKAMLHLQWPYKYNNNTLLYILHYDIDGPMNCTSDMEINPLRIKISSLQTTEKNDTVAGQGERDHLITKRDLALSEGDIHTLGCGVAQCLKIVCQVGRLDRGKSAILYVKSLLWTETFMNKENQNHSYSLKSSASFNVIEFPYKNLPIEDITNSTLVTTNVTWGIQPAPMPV
# integrin αvβ5, sequence (P18084 24-719 limits assumed): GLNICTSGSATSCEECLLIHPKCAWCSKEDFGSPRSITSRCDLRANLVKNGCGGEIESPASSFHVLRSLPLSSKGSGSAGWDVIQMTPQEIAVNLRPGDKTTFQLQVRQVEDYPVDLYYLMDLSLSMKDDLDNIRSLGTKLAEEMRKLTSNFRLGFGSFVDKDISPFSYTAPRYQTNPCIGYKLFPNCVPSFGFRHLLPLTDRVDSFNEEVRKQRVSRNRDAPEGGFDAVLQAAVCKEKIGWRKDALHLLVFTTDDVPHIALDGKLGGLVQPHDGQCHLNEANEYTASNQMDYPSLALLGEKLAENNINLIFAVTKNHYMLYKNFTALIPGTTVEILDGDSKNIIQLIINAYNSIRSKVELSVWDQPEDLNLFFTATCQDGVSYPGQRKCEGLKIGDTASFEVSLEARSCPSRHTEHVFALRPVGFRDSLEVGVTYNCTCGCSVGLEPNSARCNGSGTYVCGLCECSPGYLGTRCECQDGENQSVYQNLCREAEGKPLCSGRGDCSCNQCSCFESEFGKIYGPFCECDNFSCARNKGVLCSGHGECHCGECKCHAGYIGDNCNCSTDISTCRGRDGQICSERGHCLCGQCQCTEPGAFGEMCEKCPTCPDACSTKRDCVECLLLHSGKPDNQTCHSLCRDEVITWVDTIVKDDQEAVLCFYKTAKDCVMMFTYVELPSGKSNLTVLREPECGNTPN
# [4] = Pharmacokinetics in female Balb/c mice; format: in vivo, mouse
# EDNRA = target: T3, EDNRA (Homo sapiens, UniProt P25101); assay: Safetyscan47 GPCR Calcium Flux, Antagonist; format: cell-based
# T3 sequence (P25101 21-427): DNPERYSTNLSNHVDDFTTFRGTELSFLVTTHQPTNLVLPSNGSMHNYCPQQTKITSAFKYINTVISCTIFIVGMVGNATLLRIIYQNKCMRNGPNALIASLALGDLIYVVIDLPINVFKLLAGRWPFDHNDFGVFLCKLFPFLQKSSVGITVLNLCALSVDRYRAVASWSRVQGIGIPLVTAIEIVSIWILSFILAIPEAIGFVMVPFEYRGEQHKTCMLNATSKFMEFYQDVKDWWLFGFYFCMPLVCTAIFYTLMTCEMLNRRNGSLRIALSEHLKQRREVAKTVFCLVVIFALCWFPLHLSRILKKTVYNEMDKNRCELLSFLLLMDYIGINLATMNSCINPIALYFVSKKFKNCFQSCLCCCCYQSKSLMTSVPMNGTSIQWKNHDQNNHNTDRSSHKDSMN
# OPRD1 [5] = target: T2, OPRD1; assay: Safetyscan47 GPCR cAMP, Agonist; format: cell-based
# CHRM1 [6] = target: T1, CHRM1; assay: Safetyscan47 GPCR Calcium Flux, Agonist; format: cell-based
# [7] = IP 30 mg/kg, mouse, animal 11F031
# [8] = IP 30 mg/kg, mouse, animal 11F032
# [9] = IP 30 mg/kg, mouse, animal 11F033
# [10] = Table 3SA: IP 30 mg/kg, Mean N=2
# [11] = female, Balb/c, mouse, plasma, ip, 30 mg/kg
compound,measurement,setting,value
CC[C@H](C)[C@H](NC(=O)[C@H](CC(C)C)NC(=O)[C@H](CC(=O)O)NC(=O)CNC(=O)[C@H](CCCNC(=N)N)NC(=O)[C@@H](NC(=O)[C@H](Cc1ccccc1)NC(=O)[C@H](Cc1ccc(O)cc1)NC(=O)[C@@H]1CCC(=O)NCC(=O)NCC(=O)N[C@@H](CCCNC(=N)N)C(=O)NCC(=O)N[C@@H](Cc2c[nH]cn2)C(=O)N[C@@H](C(C)C)C(=O)N2CCC[C@H]2C(=O)N1)C(C)C)C(=O)N[C@@H](CO)C(=O)N[C@@H](Cc1ccccc1)C(=O)N[C@@H](Cc1ccc(O)cc1)C(=O)N[C@@H](CCCCN)C(=O)O [lassotide 36] (GGRGHVPEYFVRGDLISFYK-OH; lactam N-8),IC50,CHRM1 [1],> 45 µM
same,Emax,CHRM1 [1]; read-out: Max Response,8.3%
same,"Plasma protein binding, %Recovery","[2]; mouse plasma, RED, 2 μM, 4 h, 37°C",91%
same,"fraction unbound at 4 h, 2 μM","[2]; mouse, plasma, pH 7.4",0.222
same,EC50,HTR1B,> 45 µM
same,Emax,HTR1B; read-out: Max Response,2.61%
same,IC50,"OPRD1 [3]; RC50, Antagonist, Result Type IC50",> 45 µM
same,Emax,OPRD1 [3]; read-out: Max Response,0%
same,IC50,INSR,> 45 µM
same,Emax,INSR; read-out: Max Response,17.4%
same,IC50,integrin αvβ5,> 10 µM
same,AUCINF,[4]; [7],64500
same,AUClast,[4]; [7],64500
same,CL/F,[4]; [7],7.75
same,Cmax,[4]; [7],21000
same,Tmax,[4]; [7],2.0
same,Vz/F,[4]; [7],363
same,t1/2,[4]; [7],0.54
same,AUCINF,[4]; [8],71700
same,AUClast,[4]; [8],69400
same,CL/F,[4]; [8],6.97
same,Cmax,[4]; [8],27300
same,Tmax,[4]; [8],1.0
same,Vz/F,[4]; [8],389
same,t1/2,[4]; [8],0.64
same,AUClast,[4]; [9],885
same,Cmax,[4]; [9],10600
same,Tmax,[4]; [9],0.17
same,Vz,"[4]; Mouse, 30 mg/kg IP, mean",0.4 L/kg
same,AUCINF,[4]; [10],68100
same,Vz/F,[4]; [10],376
same,AUC(0-t),[4]; [11],44900 ng·h/mL
same,CL/F,[4]; [11],7.36 mL/min/kg
same,Cmax,[4]; [11],19600 ng/mL
same,Tmax,[4]; [11],63.6 min
same,half-life,[4]; [11],35.5 min
same,IC50,EDNRA,> 45 µM
same,Emax,EDNRA; read-out: Max Response,2.52%
same,EC50,OPRD1 [5],> 45 µM
same,Emax,OPRD1 [5]; read-out: Max Response,6.18%
same,EC50,CHRM1 [6],> 45 µM
same,Emax,CHRM1 [6]; read-out: Max Response,0.34%
